Seven compounds from PubChem BioAssay (NCI) can be followed below.

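Assay format: 96-well plates, 48-hour exposure. GI50 is the concentration that inhibits growth by half. TGI marks complete inhibition of growth.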

Experiment in all cases: DTP human tumour cell line panel, 48 h
The test system of assay [1] is HCT-116 colon.
Assay [2] relates to LOX IMVI melanoma.
For assay [3], the system named is NCI-H226 lung.
Assay [4] relates to OVCAR-5 ovarian.
In assay [5] the test system is PC-3 prostate.
The test system of assay [6] is SF-295 CNS.
The test system of assay [7] is SF-539 CNS.
Assay [8] deals with U251 CNS.
The test system of assay [9] is UACC-257 melanoma.
Assay [10] concerns HOP-92 NSCLC.

Turning to `c1ccc(OCCC[P+](c2ccccc2)(c2ccccc2)c2ccccc2)cc1`, the GI50 (usually the concentration at which growth is held to half of that of the control) in assay [1] is 1.42 µM; in assay [2], 2.18 µM; in assay [3] it was 2.3 µM; in assay [4] it was 4.09 µM; in [5], 0.58 µM; in assay [6], 1.97 µM. Besides, the GI50 was 3.07 µM in [7], 1.63 µM in assay [8] and 0.381 µM in assay [9]. The TGI (as a rule, the concentration giving total growth inhibition) in assay [1] is 13.4 µM; in assay [2] it was 6.75 µM; in [3] it was 30.5 µM; in assay [4], more than 100 µM; in assay [5], 6.17 µM; in [6], 7.77 µM. The TGI stood at 18.3 µM in assay [7], 14 µM in [8] and 5.71 µM in assay [9].
Regarding `CC(C)N(Cc1ccc(CN(C(=O)CCl)C(C)C)cc1)C(=O)CCl`, the GI50 in [1] was 1.65 µM; in assay [10] it was 1.83 µM; in [2], 0.29 µM; in assay [3], 3.25 µM; in assay [4], 1.91 µM; in assay [5] it was 2.27 µM. The GI50 in [6] is 1.81 µM; in [7], 1.67 µM; in assay [8], 1.77 µM. Also, the TGI in assay [1] is 5.62 µM; in assay [10], 3.56 µM; in assay [2] it was 1.05 µM; in [3], 9.44 µM; in assay [4] it was 3.97 µM; in assay [5], 5.48 µM. For the same compound, the TGI worked out at 3.88 µM in [6], 3.25 µM in assay [7] and 3.32 µM in [8].
With `Cc1cc(C)c(C#N)c(Sc2nc(C)c([N+](=O)[O-])c(C)c2C#N)n1`, the GI50 is 1.94 µM in assay [1]; 2.68 µM in assay [10]; 1.82 µM in [2]; 2.99 µM in [3]; 4.03 µM in [4]; 4.67 µM in assay [5]. Moreover, the GI50 is 14.2 µM in assay [6], 2.43 µM in assay [7] and 3.1 µM in [8]. Also, the TGI was found to be 4.18 µM in assay [1]; 7.88 µM in assay [10]; 3.44 µM in assay [2]; 10.5 µM in assay [3]; 41.1 µM in assay [4]; 61.2 µM in [5]. For the same compound, the TGI in [6] worked out at 59.4 µM; in assay [7], 6 µM; in assay [8], 10.8 µM.
For `O=C1CSC(c2ccccc2Cl)N1c1nnc(Cn2cnnc2)o1` (stereo unspecified), the GI50 is 4.09 µM in assay [1]; 19.3 µM in assay [10]; 7.43 µM in [2]; 17.3 µM in assay [3]; 20.4 µM in assay [4]; 11.6 µM in assay [5]. The GI50 in [6] was 3.38 µM; in assay [7], 13.6 µM; in assay [8], 4.58 µM. The TGI was 18.4 µM in assay [1]; 79.1 µM in assay [10]; 21 µM in assay [2]; 36.1 µM in assay [3]; 44.3 µM in assay [4]; more than 100 µM in assay [5]. Also, the TGI in assay [6] turned out to be 19.5 µM; in assay [7], 35.2 µM; in assay [8] it was 18.9 µM.
As to `COc1ccc(-c2ccc(/C=N/n3c(COc4ccccc4Cl)nn(CN4CCOCC4)c3=S)o2)c([N+](=O)[O-])c1`, the GI50 in [1] is 19.6 µM; in [10], 21.6 µM; in assay [4], 55.3 µM; in [5], 20.7 µM; in assay [6], 38.1 µM; in assay [7] it was 28.6 µM. Also, the GI50 in assay [8] was 26.1 µM. The TGI in assay [1] was 41.1 µM; in assay [10] it was 52.6 µM; in [4] it was more than 100 µM; in assay [5], 61.4 µM; in [6], more than 100 µM; in assay [7] it was 60.8 µM. The concentration for total growth inhibition (TGI) in assay [8] was more than 100 µM.
For the compound `Cc1cc(N(CCOS(C)(=O)=O)CCOS(C)(=O)=O)ccc1C(=O)O`, the GI50 in assay [1] is more than 100 µM; in [10], 37.1 µM; in [2], 73.5 µM; in [3], more than 100 µM; in assay [4], more than 100 µM; in assay [5], more than 100 µM. Also, the GI50 in assay [6] and in assay [8] was more than 100 µM in each case. Further, the TGI in [1], in assay [10], in assay [2], in assay [3], in [4] and in assay [5] was more than 100 µM in each case. Also, the TGI in [6] and in [8] was more than 100 µM in each case.
As for `O=[N+]([O-])c1ccc(Cl)c(CNc2ncnc3c2ncn3C2CCCCO2)c1` (stereo unspecified), the TGI in assay [1] was more than 100 µM; in assay [10], more than 100 µM; in assay [2], more than 100 µM; in assay [3], 86.6 µM; in assay [4] it was more than 100 µM; in assay [5], more than 100 µM. In addition, the TGI in assay [6] was more than 100 µM; in assay [7], 66.1 µM; in assay [8], more than 100 µM.
